Data reported in patent publication US7858644B2, “EP4 receptor antagonists” (Asterand UK Limited, priority 2003, dated 2010).

How the values were obtained:
human EP4 receptor = target: T1, human EP4 receptor (Homo sapiens, UniProt P35408); assay: Binding ability to human EP4 receptor ([3H]PGE2 displacement); conditions: read-out: pKi EP4 (converted)
T1 construct: expressed in transfected cells

human EP1 receptor = target: T2, human EP1 receptor (Homo sapiens, UniProt P34995); assay: Binding ability to human EP1 receptor ([3H]PGE2 displacement); conditions: membranes from cells stably transfected with human EP receptor cDNA; [3H]PGE2 3.6 nM; Cheng-Prusoff from IC50; read-out: pKi EP1 (converted)
T2 construct: expressed in transfected cells
T2 sequence (P34995 1-402): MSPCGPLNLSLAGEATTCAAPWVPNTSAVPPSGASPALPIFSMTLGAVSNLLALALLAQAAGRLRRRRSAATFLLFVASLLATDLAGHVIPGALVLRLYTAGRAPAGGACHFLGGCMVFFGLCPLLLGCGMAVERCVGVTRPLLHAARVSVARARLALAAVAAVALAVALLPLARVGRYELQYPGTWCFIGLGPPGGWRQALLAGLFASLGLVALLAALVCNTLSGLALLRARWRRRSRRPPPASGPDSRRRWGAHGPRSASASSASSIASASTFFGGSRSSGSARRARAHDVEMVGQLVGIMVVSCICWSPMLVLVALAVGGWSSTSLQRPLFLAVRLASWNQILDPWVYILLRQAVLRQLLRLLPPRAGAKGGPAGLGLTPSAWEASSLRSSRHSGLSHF
Experimental: Membranes were prepared from cells stably transfected with human EP receptor cDNA. In brief, cells were cultured to confluency, scraped from culture flasks, and centrifuged (800 g, 8 minutes, 4° C.). Cells were twice washed in ice cold homogenisation buffer containing 10 mMTris-HCl, 1 mM EDTA. 2Na, 250 mM sucrose, 1 mM PMSF, 0.3 mM indomethacin, pH 7.4, homogenised and re-centrifuged as before. The supernatant was stored on ice and pellets re-homogenised and re-spun. Supernatants were pooled and centrifuged at 40000 g, 10 minutes, 4° C. Resultant membrane pellets were stored at −80° C. until use.
For assay, membranes expressing human EP4, EP3, EP2 or EP1 receptors were incubated in Millipore (MHVBN45) plates containing assay buffer, radiolabelled [^3H]PGE2 and 0.1 to 10 000 nM concentrations of compounds. Incubations were performed at suitable temperatures and for suitable times to allow equilibrium to be reached. Non-specific binding was determined in the presence of 10 uM PGE2. Bound and free radiolabel was separated by vacuum manifold filtration using appropriate wash buffers, and bound radiolabel was determined by scintillation counting. Constituents of each of the buffers are included in table 1 below.
This approach follows that set out in Kenakin, T. P., Pharmacologic analysis of drug receptor interaction. Raven Press, New York, 2nd edition.

human EP3 receptor = target: T3, human EP3 receptor (Homo sapiens, UniProt P43115); assay: Binding ability to human EP3 receptor ([3H]PGE2 displacement); conditions: membranes from cells stably transfected with human EP receptor cDNA; [3H]PGE2 2.5 nM; Cheng-Prusoff from IC50; read-out: pKi EP3 (converted)
T3 construct: expressed in transfected cells
T3 sequence (P43115 1-390): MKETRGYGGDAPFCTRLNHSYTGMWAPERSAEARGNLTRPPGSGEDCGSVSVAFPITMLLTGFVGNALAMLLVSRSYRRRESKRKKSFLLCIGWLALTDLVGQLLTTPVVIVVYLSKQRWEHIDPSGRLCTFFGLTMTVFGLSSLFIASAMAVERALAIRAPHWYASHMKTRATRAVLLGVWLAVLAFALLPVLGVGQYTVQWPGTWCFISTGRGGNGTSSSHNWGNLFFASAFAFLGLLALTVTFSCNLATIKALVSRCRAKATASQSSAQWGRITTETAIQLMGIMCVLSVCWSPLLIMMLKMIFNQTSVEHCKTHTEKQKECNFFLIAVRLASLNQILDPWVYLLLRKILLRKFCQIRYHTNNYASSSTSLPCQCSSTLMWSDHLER
Procedure, shortened: (§1)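 Membranes from cells stably transfected with human EP receptor cDNA were incubated to equilibrium with [3H]PGE2 and compound (0.1 to 10 000 nM). Non-specific binding was defined with 10 uM PGE2; bound radioligand was separated by vacuum filtration and counted by scintillation.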

human EP2 receptor = target: T4, human EP2 receptor (Homo sapiens, UniProt P43116); assay: Binding ability to human EP2 receptor ([3H]PGE2 displacement); conditions: read-out: pKi EP2 (converted)
T4 construct: expressed in transfected cells
Procedure, shortened: as §1

T4 sequence (P43116 whole entry): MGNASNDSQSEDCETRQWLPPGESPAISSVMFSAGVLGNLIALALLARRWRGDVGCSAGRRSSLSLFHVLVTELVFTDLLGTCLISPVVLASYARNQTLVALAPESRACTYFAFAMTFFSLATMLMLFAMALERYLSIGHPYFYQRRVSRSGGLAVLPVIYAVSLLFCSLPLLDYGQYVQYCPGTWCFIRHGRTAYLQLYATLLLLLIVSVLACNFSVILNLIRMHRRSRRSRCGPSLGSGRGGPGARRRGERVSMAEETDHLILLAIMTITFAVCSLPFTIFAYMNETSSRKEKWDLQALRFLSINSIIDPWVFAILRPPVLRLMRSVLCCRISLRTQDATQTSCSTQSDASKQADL
T1 sequence (P35408 whole entry): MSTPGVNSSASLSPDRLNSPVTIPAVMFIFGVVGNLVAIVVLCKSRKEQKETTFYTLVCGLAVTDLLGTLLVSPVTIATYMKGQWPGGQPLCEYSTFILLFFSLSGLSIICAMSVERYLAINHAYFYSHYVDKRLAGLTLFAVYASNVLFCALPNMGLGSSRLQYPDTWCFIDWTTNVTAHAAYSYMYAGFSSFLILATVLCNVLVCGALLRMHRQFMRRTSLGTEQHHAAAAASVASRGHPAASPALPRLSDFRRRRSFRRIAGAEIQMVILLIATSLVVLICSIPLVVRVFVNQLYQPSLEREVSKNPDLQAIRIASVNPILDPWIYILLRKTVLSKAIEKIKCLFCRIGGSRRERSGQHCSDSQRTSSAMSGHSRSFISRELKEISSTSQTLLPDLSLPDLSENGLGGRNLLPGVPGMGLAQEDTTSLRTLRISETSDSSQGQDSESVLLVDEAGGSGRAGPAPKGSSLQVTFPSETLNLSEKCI

Row | Ki (human EP4 receptor) [µM] | Ki (human EP1 receptor) [µM] | Ki (human EP3 receptor) [µM] | Ki (human EP2 receptor) [µM] | SMILES
1 | < 0.316 | > 10 | > 10 | > 10 | COc1ccc(-c2ccc(NC(=O)c3cc(C(=O)O)oc3C)cc2)cc1 [Compound 24, 4-(4′-Methoxy-biphenyl-4-ylcarbamoyl)-5-methyl-furan-2-carboxylic acid]
2 | < 0.01 | > 10 | > 10 | > 10 | COc1ccc(-c2ccc(OCc3cc(S(=O)(=O)NC(=O)c4ccccc4)oc3C)cc2)cc1 [Compound 49, 4-(4′-Methoxy-biphenyl-4-yloxymethyl)-5-methyl-furan-2-sulfonic acid benzoylamide]
3 | < 0.01 | > 10 | > 10 | > 10 | Cc1ccccc1S(=O)(=O)NC(=O)c1cc(COc2ccc(-c3ccccc3)cc2)c(C)o1 [Compound 60, N-[4-(Biphenyl-4-yloxymethyl)-5-methyl-furan-2-carbonyl]-2-methyl-benzenesulphonamide]
